Here are results for one molecule from publication PMC10771296, “Plectasin: from evolution to truncation, expression, and better druggability” (Frontiers in Microbiology, 2023).

Data set [1] concerns S. aureus ATCC43300. Kind of data set: pH stability read out as MIC. The class given is physicochemical, Staphylococcus aureus. The following applies: for MIC after pH treatment: triplicates. Here is the method: The stability of Ple-AB was assessed based on its antibacterial activity against S. aureus ATCC43300. Temperature stability was determined by incubation at 20, 40, 60, 80, and 100°C for 1 h ([Li et al., 2020]). The pH stability was determined by incubation in buffers with a pH of 2, 4, 6, 8, and 10 for 4 h ([Yang et al., 2017]). The peptides were incubated with different concentrations of metal ions, serum, artificial gastric fluid, and simulated intestinal fluid to assess their stability in the blood and intestines ([Lyu et al., 2019]). All the treatments were performed in triplicates.

For data set [2], the system named is S. aureus ATCC43300. The data set is described as follows: Post-antibiotic effect. Format: cell-based, Staphylococcus aureus. The following applies: 2 h exposure, 1 × 10^8 CFU/mL, then diluted 1,000 times. Here is the method:
They were incubated at 37°C and 250 rpm, sampled, and coated on MHA plates for colony counting every hour. Phosphate-buffered saline (PBS) was used as a negative control, and vancomycin was used as a positive control. The calculation formula for the Post-antibiotic effect (PAE) was based on previous study ([Wu et al., 2022]).

Where a SMILES comes first, the peptide text is derived from it. Bridges are numbered along the chain shown (N, C = ends).

As to `CC[C@H](C)[C@@H]1NC(=O)[C@H](CO)NC(=O)[C@H](CCCCN)NC(=O)[C@@H]2CSSC[C@@H](C(=O)N[C@@H](Cc3ccc(O)cc3)C(=O)O)NC(=O)[C@H](CCCCN)NC(=O)[C@@H]3CSSC[C@H](NC(=O)[C@H](CCC(N)=O)NC(=O)[C@H](CCSC)NC(=O)[C@H](CCC(=O)O)NC(=O)[C@H](CC(=O)O)NC(=O)[C@H](Cc4c[nH]c5ccccc45)NC(=O)[C@@H]4CCCN4C(=O)[C@@H](NC(=O)CNC(=O)[C@H](Cc4ccccc4)NC(=O)CN)CSSC[C@H](NC(=O)[C@H](Cc4ccc(O)cc4)NC(=O)CNC(=O)CNC(=O)[C@H](CCCCN)NC(=O)[C@H](Cc4ccc(O)cc4)NC(=O)CNC(=O)[C@H](CCCCN)NC1=O)C(=O)N[C@@H](C)C(=O)N[C@@H](CCCCN)C(=O)NCC(=O)NCC(=O)N[C@@H](Cc1ccccc1)C(=O)N[C@@H](C(C)C)C(=O)N3)C(=O)N[C@@H](Cc1c[nH]cn1)C(=O)N[C@@H](CC(N)=O)C(=O)N[C@@H](Cc1c[nH]cn1)C(=O)N2` [Ple-AB] (H-GFGCPWDEMQCHNHCKSIKGYKGGYCAKGGFVCKCY-OH; disulfide 4-26, 11-33, 15-35; N-terminus and C-terminus assumed), the “MIC after pH treatment” value is given as 16 μg/mL against S. aureus ATCC43300 [1] (buffer pH 2, 4 h); 16 μg/mL against S. aureus ATCC43300 [1] (buffer pH 4, 4 h); 16 μg/mL against S. aureus ATCC43300 [1] (buffer pH 6, 4 h); 16 μg/mL in the data set on S. aureus ATCC43300 [1] (buffer pH 8, 4 h); 32 μg/mL in the data set with S. aureus ATCC43300 [1] (buffer pH 10, 4 h). Besides, the “Increase of MIC after pH treatment” value with S. aureus ATCC43300 [1] (pH 10, 4 h, versus control) was “twofold”. Also, the figures for the “PAE (post-antibiotic effect)” value in the data set with S. aureus ATCC43300 [2] (1× MIC), with S. aureus ATCC43300 [2] (2× MIC) and with S. aureus ATCC43300 [2] (4× MIC) were 1.15 h, 1.18 h and 2.25 h, respectively.
